Source: patent publication US4145337A, “Aminoethylglycine containing polypeptides” (Hoffmann-La Roche Inc., priority 1977, dated 1979)
Non-standard residues stand in square brackets, D forms with d. Residues, ends and D or L forms follow the SMILES beside them. Gly(N-2-aminoethyl) = NCCNCC(=O)O

Assays:
[1] = system: gastric mucus production; assay: Stimulation of mucoprotein production: gastric mucosal carbohydrates and total protein; type: in vivo, rat; conditions: 800 μg/kg i.p.
Procedure: Overnight fasted rats received saline solutions of either Compound M or Compound A at the antisecretory dose of 800μg/kg administered intraperitoneally. Control rats were given only vehicle. All animals were sacrificed by decapitation 1 hour after dosing. After opening the abdomen the stomach was removed and its contents were washed away with 10 ml of a 0.85% NaCl solution. The excised stomachs were cut open along the greater curvature and the exposed gastric mucosa was carefully scraped. The scrapings were homogenized in 5 ml of the 0.85% NaCl solution and subjected to chemical analysis. Total hexoses were determined by the anthrone reaction, which is based on the formation in concentrated sulfuric acid of furfural derivatives which react with anthrone to form a blue-green color; this reaction has the advantage of being applied directly to the glycoprotein with color formation occuring concurrently with the liberation of sugars (Methods in Enzymology, Vol. VIII, pp. 4-5 1966). Fucose in the unhydrolyzed mucoprotein was determined by the Dische-Shettes cysteine-sulfuric acid reaction for methyl pentoses. This method allows accurate determination of fucose even in the presence of large amounts of hexoses and peptide material (Methods in Eznymology, Vol. VIII, pp 11-13 , 1966).
Total protein was determined using the Lowry method.

[2] = system: restraint-immersion induced gastric ulceration; assay: Mouse restraint-immersion test, antiulcerogenic activity; type: in vivo
Procedure: In both studies CD-1 male mice weighing between 18-25 g were used. The mice were fasted for 19 hours prior to the initiation of restraint-immersion which involved restraining animals in rubber hoses and immersion in water (21° C.) to the height of the xiphoid process. In the first study, just prior to the initiation of the restraint-immersion procedure, mice received, via the subcutaneous route, graded amounts (0.1 to 10 mg/kg b.w.) of somatostatin (Compound A), Compound F, or vehicle (5% acacia); this administration was repeated two hours later. In the second study, the compounds (Compound A, Compound L, or vehicle) were administered only once, just prior to the initiation of the restraint-immersion procedure. Following four hours of restraint-immersion the animals (both studies) were killed and their stomachs examined for ulceration. The degree of ulceration was determined by the amount of visible blood present in the stomach and was rated on a scale of 0 to 4, with 0 being no detectable blood and 4 being a massive amount of blood. All compounds were dispersed in 5% acacia and administered at a dosage volume of 0.2 ml per 20 grams of body weight. The antiulcerogenic ED50 values were calculated using percent protection as the response and a computer program ("ED50") based on the probit method of Finney (Finney, "Probit Analysis", Cambridge University Press, 1971). The comparative effectiveness (relative potency R. P.) of somatostatin and Compound F (first study) or somatostatin and Compound L (second study) was determined from the dose responses using an "ED50" computer program.

[3] = system: gastric secretion; conditions: chronic fistula dog, Torchiana et al. 1977; cited from earlier work
[4] = system: peptic ulcer bleeding; conditions: infusion in man, Rasche et al. 1976; cited from earlier work
[5] = system: basal gastric secretion and gastrin release; conditions: Bloom et al. 1974; cited from earlier work
[6] = system: gastrointestinal bleeding from residual ulcers; conditions: patient, 250 μg i.v. bolus then 250 μg per hour for 67 hours; cited from earlier work
[7] = system: duodenal ulcers produced by prolonged administration of pentagastrin or histamine; conditions: cats, continuous i.v. infusion 0.62 to 5.0 μg/kg-hr; cited from earlier work
[8] = system: restraint ulcer formation; conditions: cited from earlier work
[9] = system: basal gastric acid secretion; assay: Gastric antisecretory activity in unanesthetized gastric fistula rat, i.v.; type: in vivo; conditions: 200 μg i.v. single bolus
Procedure: The gastric antisecretory effect of somatostatin analogs was studied in a model which utilizes unanesthetized rats.
All operative techniques were carried out on fasted female albino rats (average weight 250 g), under Penthrane anesthesia, using montraumatic microsurgical instruments, polyethylene tubing and a special adhesive. The basic model used in the present studies consisted of:
This allowed adequate hydration through the constant infusion of 0.15M NaCl (at the rate of 1.4 ml/hr.). This catheter was also used for i.v. administration of solutions of the test compounds.
(b) Catheterization of the stomach. A cannula in the forestomach allowed washing of the gastric lumen with saline (before experiments). Water (0.2 ml/10 min) was infused through this catheter during the experimental periods. This was done to prevent obstruction of the "collecting" cannula (see below) by gastric debris and to obtain a practical workable volume to measure several parameters of gastric secretion. A second cannula was positioned in the glandular stomach, close to the greater curvature, in the more dependent site and in such a way as to allow collection, by gravity, of all fluids emerging from the stomach. Passage of these secretions through a small glass container permitted continuous recording of pH by means of a glass microelectrode. A fraction collector was used to simultaneously obtain the gastric secretions.
(c) Catheterization of the lower part of the common bile duct to procure mixed secretions of bile and pancreatic juice as a function of time. This was done with the purpose of examining the effect of these compounds, if any, on bile flow.
This preparation is suitable for the bioassay of microgram quantities of gastric secretory depressants in which each animal serves as its own control. The rats (250 g b.w.) were allowed to attain a period of stabilized gastric acid output (for one hour) and were then injected intravenously (100 μl) with 200 μg of the test compound. This single bolus injection was immediately followed by a rinsing injection of 50 μl saline, thus insuring quantitative delivery of the dose. The pH was recorded continuously for 1 hour before and 1 1/2 hour after the i.v. injection of the test compounds. The gastric secretions were collected over 10-minute intervals before and after dosage. Four parameters of gastric secretion were evaluated: (a) changes in the negative logarithm of the hydrogen ion activity (pH, determined by the glass electrode either by a continuous trace or in samples taken at 10-minute intervals); (b) volume; (c) total acid concentration (μEq/ml); and d) total acid output (μEq/10-min periods).

[10] = system: pentagastrin-induced gastric acid secretion; conditions: Brown et al. 1977; cited from earlier work
[11] = system: growth hormone, insulin and glucagon; conditions: Brown et al. 1977; cited from earlier work
[12] = system: gastric secretion; assay: Gastric antisecretory activity after intragastric administration, unanesthetized rat; type: in vivo; conditions: 8 mg/kg b.w. intragastrically, saline solution
Procedure: The unanesthetized rat model was used in an exact manner to that employed in the evaluation of gastric antisecretory activity after parenteral administration described above in A, with the following modification. Following recording of the gastric pH for 1 hour, drainage of the gastric secretions was interrupted by means of a forceps. Saline solutions (total volume = 1000 μl) of Compound N (at the dose of 8 mg/kg b.w.) were then intragastrically administered, via the canula in the avascular stomach, which was closed. Fifteen minutes later, the catheter draining the gastric secretions was reopened; the water infusion through the catheter in the forestomach was simultaneously reestablished. The pH was now recorded continuously for 1 1/2 hours. Samples of gastric juice were taken before and after treatment, and analyzed for the usual four parameters of gastric secretion.

[13] = 1 hour after dosing, mucosal scrapings

C[C@H](N)C(=O)NCC(=O)N[C@H]1CSSC[C@@H](C(=O)O)NC(=O)[C@H](CO)NC(=O)[C@H]([C@@H](C)O)NC(=O)[C@H](Cc2ccccc2)NC(=O)[C@H]([C@@H](C)O)NC(=O)[C@H](CCCCN)NC(=O)[C@H](Cc2c[nH]c3ccccc23)NC(=O)[C@H](Cc2ccccc2)NC(=O)[C@H](Cc2ccccc2)NC(=O)[C@H](CC(N)=O)NC(=O)[C@H](CCCCN)NC1=O [Compound A, somatostatin]
Fucose, gastric mucosal concentration (mean) [1, 13]: 46.2 μg/total sample
Hexose, gastric mucosal concentration (mean) [1, 13]: 235.3 μg/total sample
Total Protein, gastric mucosal concentration (mean) [1, 13]: 350.0 μg/total sample
gastric mucosal carbohydrates versus control, in words ([1]; 1 hour after treatment): did not appear to influence concentration of carbohydrates
gastric mucosal total protein versus control, in words ([1]; 1 hour after treatment): produced an increment of the total protein
prevention of restraint-immersion induced gastric ulceration, in words ([2]; first study, s.c. twice): effective in preventing restraint-immersion induced gastric ulceration
antiulcerogenic ED50 ([2]; first study: s.c. just prior to restraint-immersion, repeated two hours later, 4 h restraint-immersion): 0.35 mg/kg
ED50 ([2]; second study: administered only once just prior to restraint-immersion, 4 h): 6.70 mg/kg
duration of inhibitory effects on gastric secretion [3]: short duration
effect on peptic ulcer bleeding [4]: stop peptic ulcer bleeding
effect on basal gastric secretion and gastrin release [5]: inhibits basal gastric secretion and gastrin release
effect on bleeding [6]: immediate cessation of the bleeding after 1 hour
endoscopy at the end of treatment period [6]: two ulcers in the process of healing
prevention of duodenal ulcers [7]: effectively prevented the formation of duodenal ulcers
ulcers relative to untreated animals ([8]; 100 μg linear protamine-zinc-somatostatin/rat s.c. before, 3 h and 6 h, after 9 hours of immobilization): 1/5
effect on restraint ulcer formation ([8]; subcutaneous administration in rats, Zierden et al. 1976): prophylactic effect on restraint ulcer formation

C[C@H](N)C(=O)NCC(=O)N[C@@H](CS)C(=O)N[C@@H](CCCCN)C(=O)N[C@@H](CC(N)=O)C(=O)N[C@@H](Cc1ccccc1)C(=O)N[C@@H](Cc1ccccc1)C(=O)N[C@@H](Cc1c[nH]c2ccccc12)C(=O)N[C@@H](CCCCN)C(=O)N[C@H](C(=O)N[C@@H](Cc1ccccc1)C(=O)N[C@H](C(=O)N[C@@H](CO)C(=O)N[C@@H](CS)C(=O)O)[C@@H](C)O)[C@@H](C)O [Compound B, HAlaGlyCysLysAsnPhePheTrpLysThrPheThrSerCysOH]
gastric antisecretory activity (pH and acid concentration), in words, relative to somatostatin [9]: as active as the oxidized, cyclic somatostatin

C[C@@H](O)[C@@H]1NC(=O)[C@H](CCCCN)NC(=O)[C@H](Cc2c[nH]c3ccccc23)NC(=O)[C@H](Cc2ccccc2)NC(=O)[C@H](Cc2ccccc2)NC(=O)[C@H](CC(N)=O)NC(=O)[C@H](CCCCN)NC(=O)CN(CCN)C(=O)[C@H](CO)NC(=O)[C@H]([C@@H](C)O)NC(=O)[C@H](Cc2ccccc2)NC1=O [Compound D, Cyclo [Aminoethylglycyl-L-lysyl-L-asparaginyl-L-phenylalanyl-L-phenylalanyl-L-tryptophyl-L-lysyl-L-threonyl-L-phenylalanyl-L-threonyl-L-seryl]] (cyclo(FFWKTFTS[Gly(N-2-aminoethyl)]KN))
gastric antisecretory activity (pH and acid concentration), in words, relative to somatostatin [9]: erratic activity

C[C@H](NC(=O)CNCCN)C(=O)NCC(=O)N[C@@H](CS)C(=O)N[C@@H](CCCCN)C(=O)N[C@@H](CC(N)=O)C(=O)N[C@@H](Cc1ccccc1)C(=O)N[C@@H](Cc1ccccc1)C(=O)N[C@@H](Cc1c[nH]c2ccccc12)C(=O)N[C@@H](CCCCN)C(=O)N[C@H](C(=O)N[C@@H](Cc1ccccc1)C(=O)N[C@H](C(=O)N[C@@H](CO)C(=O)N[C@@H](CS)C(=O)O)[C@@H](C)O)[C@@H](C)O [Compound E, Aminoethylglycyl-L-alanyl-glycyl-L-cysteinyl-L-lysyl-L-asparaginyl-L-phenylalanyl-L-phenylalanyl-L-tryptophyl-L-lysyl-L-threonyl-L-phenylalanyl-L-threonyl-L-seryl-L-cysteine]
gastric antisecretory activity (pH and acid concentration), in words, relative to somatostatin [9]: severely decreases activity

C[C@@H](O)[C@H](NC(=O)[C@H](Cc1ccccc1)NC(=O)[C@@H](NC(=O)[C@H](CCCCN)NC(=O)[C@H](Cc1c[nH]c2ccccc12)NC(=O)[C@H](Cc1ccccc1)NC(=O)[C@H](Cc1ccccc1)NC(=O)[C@H](CC(N)=O)NC(=O)[C@H](CCCCN)NC(=O)[C@H](CS)NC(=O)CNCCN)[C@@H](C)O)C(=O)N[C@@H](CO)C(=O)N[C@@H](CS)C(=O)N(CCN)CC(=O)O [Compound J, Aminoethylglycyl-L-cysteinyl-L-lysyl-L-asparaginyl-L-phenylalanyl-L-phenylalanyl-L-tryptophyl-L-lysyl-L-threonyl-L-phenylalanyl-L-threonyl-L-seryl-L-cysteinyl-aminoethylglycine] (H-[Gly(N-2-aminoethyl)]CKNFFWKTFTSC[Gly(N-2-aminoethyl)]-OH)
gastric antisecretory activity (pH and acid concentration), in words, relative to somatostatin [9]: less active than somatostatin

(D-Trp^8)-somatostatin
potency in inhibition of pentagastrin-induced gastric acid secretion relative to somatostatin [10]: less potent
potency in inhibition of growth hormone, insulin and glucagon relative to somatostatin [11]: higher potency than somatostatin

Aminoethylglycyl-aminoethylglycyl-L-cysteinyl-L-lysyl-L-asparaginyl-L-phenylalanyl-L-phenylalanyl-D-tryptopyl-L-lysyl-L-threonyl-L-phenylalanyl-L-threonyl-L-seryl-L-cysteine [Compound N]
gastric antisecretory activity after intragastric administration [12]: active after intragastric administration
